{
  "source": "patent US20090142337A1",
  "about": "“Pharmaceutical Combinations of Diazole Derivatives for Cancer Treatment” (Astex Therapeutics Limited, priority 2006, published 2009)",
  "key": {"HCT-116 cell line": {"system": "HCT-116 cell line", "assay": "Anti-proliferative activity (Alamar Blue assay)", "type": "cell-based, human", "details": "for IC50: Homo sapiens, HCT-116, read-out: HCT-116 cell proliferation IC50", "method": "The anti-proliferative activities of compounds for use in the combinations of the invention can be determined by measuring the ability of the compounds to inhibition of cell growth in a number of cell lines. […] The method is based on the ability of viable cells to reduce resazurin to its fluorescent product resorufin. […] The number of viable cells is determined by Alamar Blue assay as before. Cell lines can be obtained from the ECACC (European Collection of cell Cultures)."}, "[1]": {"assay": "Determination of oral bioavailability", "type": "in vivo, balb/c mice", "details": "mice, oral route (5 mg/kg PO vs 1 mg/kg IV)", "method": "The oral bioavailability of the compounds for use in the combinations of the invention may be determined as follows.\nThe test compound is administered as a solution both I.V. and orally to balb/c mice at the following dose level and dose formulations; • 1 mg/kg IV formulated in 10% DMSO/90% (2-hydroxypropyl)-β-cyclodextrin (25% w/v); and • 5 mg/kg PO formulated in 10% DMSO/20% water/70% PEG200.\nAt various time points after dosing, blood samples are taken in heparinised tubes and the plasma fraction is collected for analysis. The analysis is undertaken by LC-MS/MS after protein precipitation and the samples are quantified by comparison with a standard calibration line constructed for the test compound. The area under the curve (AUC) is calculated from the plasma level vs time profile by standard methods. The oral bioavailability as a percentage is calculated from the following equation: […]"}, "[2]": {"system": "human tumour derived cell lines", "assay": "Xenograft studies", "type": "in vivo, nude mice", "details": "dosed orally", "excerpt": "These biomarkers include suppression of phosphorylation of substrates of the cyclin dependent kinases e.g. retinoblastoma protein."}, "[3]": {"assay": "Vapour sorption/desorption analysis", "type": "physicochemical", "details": "0 to 90% RH stepwise, 25 °C, total upon equilibration at 90% RH", "method": "Crystals of 4-(2,6-dichlorobenzoylamino)-1H-pyrazole-3-carboxylic acid (1-methanesulphonyl-piperidin-4-yl)-amide prepared by the recrystallisation method of Example 5 Step 8 were subjected to vapour sorption/desorption analysis in order to test for the propensity of this sample to form a hydrated state.\nApproximately 20 mg of sample was placed into a wire-mesh vapour sorption balance pan and loaded into an ‘IgaSorp’ vapour sorption balance (Hiden Analytical Instruments) held at 25+/−0.1° C. The sample was then dried by maintaining a 0% humidity environment (using mass flow control apparatus) until no further weight change was recorded. Subsequently, the sample was then subjected to a ramping profile from 0-90% relative humidity (% RH) at 10% RH increments, maintaining the sample at each step until equilibration had been attained (99.5% step completion).\nUpon reaching equilibration, the % RH within the apparatus was ramped to the next step and the equilibration procedure repeated. After completion of the sorption cycle, the sample was then dried using the same procedure. The weight change during the sorption/desorption cycles was then monitored, allowing for the hygroscopic nature of the sample to be determined."}, "PKA": {"target": "PKA (Homo sapiens, UniProt P17612)", "details": "cited from earlier work"}, "PKG": {"system": "PKG", "details": "cited from earlier work"}, "OVCAR-3 tumour cells": {"system": "OVCAR-3 tumour cells", "details": "concentrations of 50 and 100 microM; cited from earlier work"}, "CML patients": {"system": "CML patients", "details": "CML blast phase; cited from earlier work"}, "CDK2/CyclinA": {"target": "CDK2/CyclinA (Homo sapiens, UniProt P24941)", "assay": "Activated CDK2/CyclinA kinase inhibitory activity assay", "type": "biochemical", "method": "The reaction is allowed to proceed for 2 to 4 hours before being stopped with an excess of ortho-phosphoric acid (5 μl at 2%). γ^33P-ATP which remains unincorporated into the histone H1 is separated from phosphorylated histone H1 on a Millipore MAPH filter plate. The wells of the MAPH plate are wetted with 0.5% orthophosphoric acid, and then the results of the reaction are filtered with a Millipore vacuum filtration unit through the wells. Following filtration, the residue is washed twice with 200 μl of 0.5% orthophosphoric acid. Once the filters have dried, 20 μl of Microscint 20 scintillant is added, and then counted on a Packard Topcount for 30 seconds."}},
  "data": [
    {"smiles": "CS(=O)(=O)N1CCC(NC(=O)c2n[nH]cc2NC(=O)c2c(Cl)cccc2Cl)CC1", "note": "[Example 1, 4-(2,6-dichloro-benzoylamino)-1H-pyrazole-3-carboxylic acid (1-methanesulphonyl-piperidin-4-yl)-amide]", "values": [
      {"measurement": "more potent anti-proliferative effect on human colon cancer HCT-116 cell line compared to difluoro-analogue", "setting": "HCT-116 cell line", "value": "6-7 fold"},
      {"measurement": "IC50", "setting": "HCT-116 cell line", "value": 110, "unit": "nM"},
      {"measurement": "bioavailability", "setting": "[1]; balb/c, mouse, plasma, oral, 5 mg/kg", "value": "40 to 50", "unit": "%"},
      {"measurement": "oral bioavailability", "setting": "[1]", "value": "30-100%"},
      {"measurement": "tumour biomarkers (phosphorylation of CDK substrates e.g. retinoblastoma protein)", "setting": "[2]", "value": "inhibition of the tumour biomarkers"},
      {"measurement": "tumour growth in xenografts", "setting": "[2]; xenografts implanted sub-cutaneously", "value": "inhibition of tumour growth"},
      {"measurement": "weight increase on vapour sorption", "setting": "[3]", "value": 0.24, "unit": "%"}
    ]},
    {"smiles": "O=S(=O)(NCCNCC=C(c1ccccc1)c1ccccc1)c1cccc2cnccc12", "note": "[NL-71-101]", "values": [
      {"measurement": "IC50", "setting": "PKA", "value": 9, "unit": "µM"},
      {"measurement": "IC50", "setting": "PKG", "value": 36, "unit": "µM"},
      {"measurement": "apoptosis in OVCAR-3 tumour cells", "setting": "OVCAR-3 tumour cells", "value": "induced apoptosis"}
    ]},
    {"smiles": "Cc1ccc(NC(=O)c2ccc(CN3CCN(C)CC3)cc2)cc1Nc1nccc(-c2cccnc2)n1", "note": "[imatinib]", "values": [
      {"measurement": "duration of remissions", "setting": "CML patients", "value": "2-6 months"}
    ]},
    {"smiles": "CS(=O)(=O)N1CCC(NC(=O)c2n[nH]cc2NC(=O)c2c(F)cccc2F)CC1", "note": "[reference compound]", "values": [
      {"measurement": "selectivity for CDK inhibition over GSK3β", "setting": "CDK2/CyclinA", "value": "~6", "unit": "fold"},
      {"measurement": "IC50", "setting": "HCT-116 cell line", "value": 740, "unit": "nM"}
    ]}
  ]
}
